The test system of data set [1] is CO2-induced ammesia in mice. As to the kind of experiment: Nootropic action: effect on CO2-induced amnesia in mice (passive avoidance response). It counts as in vivo, mice (male ICR). Particulars: i.p., 30 min before the test, saline = 100, ** p < 0.01. On the procedure:
Effect of the compounds (I) and (II) on impairment of passive avoidance response, induced by exposing mice to 100% CO2 gas, was evaluated. Male ICR mice (Japan Clea) aged 5 weeks were used. The experimental apparatus consisted of two compartments, and one illuminated chamber (9×9×25 cm) was connected to dark chamber (25×25×30 cm) with a guillotine door. Each mouse was placed in the illuminated compartment and then allowed to enter the dark one. When the mouse entered the dark chamber, the door was closed and AC 0.5 mA footshock was applied to the floor grid of the dark chamber. The mouse can memorize the experience receiving the uncomfortable stimulus for a few weeks. Next, the consolidation processes of memory were disturbed by an experimental manipulation: Each mouse was placed under the hypoxic condition by being placed into a 4l desiccator filled with 100% CO2 gas, immediately after receiving the footshock in the dark chamber. When his respiratory function was stopped, the mouse was taken out from the desiccator and given artificial respiration till recovering spontaneous respiration. This procedure disturbed the consolidation of the memory (experience of footshock). On the next day, a retention test was performed whether the mouse memorizes the footshock or not. In the test, the mouse was again placed in the illuminated compartment and the latency to enter the dark compartment was measured.
The mice subjected to hypoxia entered the dark compartment with short latency, 10-20 sec. […] The ameliorating effect of compounds on the amnesia induced by hypoxia was evaluated by the latency time, and was expressed as the percent change of the mean time of the vehicle-treated control group (Table 5.). The compounds were suspended in 5% arabic gum solution, and administered intraperitoneally (i.p.) 30 min. before the test.

Data set [2] concerns mice. The data set is described as follows: General symptoms in mice (salivation, lachrymation, hypothermia). It counts as in vivo. Also noted: key: +++: marked; ++: moderate; +: mild; non-detected. Particulars: 100 mg/kg orally; observed for 4 hours. On the procedure:
Four mice were used for each group. Mice were placed in stainless steel cages (13×18×25 cm) and after a 1-hr habituation period the compounds were administered. […] Peripheral and central effects of the compounds were estimated with the incidences of salivation and lachrymation, and a grade of hypothermia, respectively.
The compounds which were soluble in saline were dissolved in saline and the others were suspended in 5% arabic gum solution. Each compound was administered orally (100 mg/kg).
Scorings of the symptoms were made as follows.

The target of data set [3] is T1, Acetylcholinesterase (Rattus norvegicus, UniProt P37136).
T1 construct: the S1 fraction of a male Wistar rat cerebral cortex homogenate was used as a cholinesterase source; from tissue; host or cells: male Wistar rat cerebral cortex homogenate, S1 fraction
T1 sequence (P37136 32-614): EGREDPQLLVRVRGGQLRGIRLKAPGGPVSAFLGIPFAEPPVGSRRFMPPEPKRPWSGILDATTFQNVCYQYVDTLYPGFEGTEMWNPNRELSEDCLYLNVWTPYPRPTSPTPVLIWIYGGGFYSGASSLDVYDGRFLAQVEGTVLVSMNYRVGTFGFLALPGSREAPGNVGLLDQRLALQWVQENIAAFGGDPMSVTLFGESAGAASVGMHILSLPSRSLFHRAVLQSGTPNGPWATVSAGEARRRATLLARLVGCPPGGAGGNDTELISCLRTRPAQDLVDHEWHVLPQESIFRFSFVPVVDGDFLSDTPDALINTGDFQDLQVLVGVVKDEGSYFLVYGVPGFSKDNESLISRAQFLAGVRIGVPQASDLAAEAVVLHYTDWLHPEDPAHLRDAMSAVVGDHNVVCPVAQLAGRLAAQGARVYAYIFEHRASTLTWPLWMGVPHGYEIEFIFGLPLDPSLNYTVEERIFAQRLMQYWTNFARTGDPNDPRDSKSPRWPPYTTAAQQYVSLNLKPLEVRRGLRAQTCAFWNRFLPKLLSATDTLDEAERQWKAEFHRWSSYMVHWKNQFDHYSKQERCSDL
As to the kind of experiment: Acetylcholinesterase inhibiting activity using (acetyl-[3H])-acetylcholine, S1 fraction of rat cerebral cortex homogenate. It counts as biochemical, male Wistar rat. As to the method: The compounds according to the invention were examined for cholinesterase inhibiting activity using (acetyl-[^3 H])-acetylcholine. Thus, the S1 fraction of a male Wistar rat cerebral cortex homogenate was used as a cholinesterase source, and (acetyl-[^3 H])-acetylcholine (as substrate) and each test compound according to the invention were added and, after 30 minutes of incubation, the reaction was terminated. A toluene type scintillator was added, and the mixture was shaken, whereby the reaction product [^3 H]-acetic acid was transferred to the toluene layer. The cholinesterase activity was determined by counting said [^3 H]-acetic acid with a liquid scintillation counter.
The cholinesterase inhibiting activity of each test compound was expressed in terms of 50% inhibitory concentration (IC50).

Data set [4] in a line: LD50 value, oral, mice. Particulars: mouse, in vivo, p.o., ten mice per group. The source says: LD50 value Ten mice were used for each group. LD50 value was estimated with the dose (mg/kg, p.o.) which induced death in 50% of mice.
The mark [5] stands for this setting: rat cerebral cortex homogenate S1 fraction, 30 minutes of incubation, read-out: Acetylcholinesterase inhibiting activity IC50.

Here are results for 34 molecules from patent publication US5025033A, “Alkylene diamines” (Takeda Chemical Industries, Ltd., priority 1988, dated 1991).

Structures are written as SMILES. Where a name gives a salt, the structure may show the parent alone. Read-outs that look alike come from different tables or passages of the source. Where only a bound is given, the exact number is not on record here.

`CCN(CCCCCN1C(=O)c2ccc([N+](=O)[O-])cc2C1=O)Cc1ccccc1` [Compound 2-8]: the “Anti-amnesia (latency, percent change of the mean time of the vehicle-treated control group)” value in data set [1] (3 mg/kg) is reported as 326%. Moreover, in data set [2], the Hypothermia result is given as “+”, the Lachrymation entry was “++” and the Salivation entry was “+”. Also, the IC50 – broadly, the concentration that inhibits the measured activity by half – in data set [3] (setting [5]) came to 150 nM. The LD50 (usually the dose at which mortality reaches 50%) in data set [4] is 300 mg/kg. For `CCN(CCCCCN1C(=O)c2ccc(NC(C)=O)cc2C1=O)Cc1ccccc1` [Compound 11-1], the “Anti-amnesia (latency, percent change of the mean time of the vehicle-treated control group)” value in data set [1] (1 mg/kg) came to 455%. Moreover, in data set [2], the Hypothermia entry is “+”, the Lachrymation entry is “++” and the Salivation result is recorded as “-”. This molecule also showed a half-inhibitory concentration (IC50) in data set [3] of 320 nM. Besides, the median lethal dose (LD50) in data set [4] is over 300 mg/kg. Take `CCN(CCCCCNC(=O)/C=C/c1cccc(OC)c1)Cc1ccccc1` [Compound 14-19]: the IC50 in data set [3] (setting [5]) amounted to 9300 nM. As for `CCN(CCCCCNC(=O)/C=C/c1ccc(SC)cc1)Cc1ccccc1` [Compound 14-20], the IC50 in data set [3] (setting [5]) turned out to be 21000 nM. On the same count and under the same terms, the figure for `CCN(CCCCCNC(=O)/C=C/c1ccc([S+](C)[O-])cc1)Cc1ccccc1` (stereo not drawn) [Compound 14-21] is 7500 nM; for `CCN(CCCCCNC(=O)/C=C/c1ccc(S(C)(=O)=O)cc1)Cc1ccccc1` [Compound 14-22] it is 3200 nM. Same read-out and setting: as for `CCN(CCCCCNC(=O)/C=C/c1cc(OC)c(OC)c(OC)c1)Cc1ccccc1` [Compound 14-23], the figure is 4100 nM; as for `CCN(CCCCCNC(=O)/C=C/c1ccc([N+](=O)[O-])c(O)c1)Cc1ccccc1` [Compound 14-24], 170 nM.

Turning to `CCN(CCCCCNC(=O)/C=C/c1ccc(Cl)c([N+](=O)[O-])c1)Cc1ccccc1` [Compound 14-25], the IC50 in data set [3] (setting [5]) was found to be 1900 nM. With `CC(=O)N(CCCCN(C)Cc1ccccc1)C(=O)/C=C/c1ccc([N+](=O)[O-])cc1` [Compound 15, (E)-N-Acetyl-N-[4-(N-methyl-N-benzyl)aminobutyl]-3-(4-nitrophenyl)-2-propenamide hydrochloride], in data set [3] (setting [5]), the IC50 was 19000 nM.

Consider `CCN(CCCCN(C(C)=O)C(=O)/C=C/c1ccc([N+](=O)[O-])cc1)Cc1ccccc1` [Compound 16-1], for which, in data set [3] (setting [5]), the IC50 was determined as 7300 nM. The same measure, in the same setting: as for `CCN(CCCCCN(C(C)=O)C(=O)/C=C/c1ccc([N+](=O)[O-])cc1)Cc1ccccc1` [Compound 16-2], the figure is 560 nM.

As to `CCN(CCCCCCN(C(C)=O)C(=O)/C=C/c1ccc([N+](=O)[O-])cc1)Cc1ccccc1` [Compound 16-3], in data set [3] (setting [5]), the 50% inhibitory concentration (IC50) amounted to 3000 nM.

Consider `CCN(CCCCCN(C(C)=O)C(=O)/C=C/c1cccc([N+](=O)[O-])c1)Cc1ccccc1` [Compound 16-4], for which, in data set [3] (setting [5]), the IC50 was 530 nM.

`CCN(CCCCCN(C(C)=O)C(=O)/C=C/c1ccc(Cl)cc1)Cc1ccccc1` [Compound 16-5]: the IC50 in data set [3] (setting [5]) is 2200 nM. Take `CCN(CCCCCN(C(C)=O)C(=O)/C=C/c1ccc(C#N)cc1)Cc1ccccc1` [Compound 16-6]: in data set [3] (setting [5]), the IC50 is 460 nM. The same measure, in the same setting: the figure for `CCN(CCCCCN(C(C)=O)C(=O)/C=C/c1cccc(OC)c1)Cc1ccccc1` [Compound 16-7] is 5800 nM; for `CCN(CCCCCN(C(C)=O)C(=O)/C=C/c1ccc(S(C)(=O)=O)cc1)Cc1ccccc1` [Compound 16-8] it is 170 nM. Same read-out and setting: the figure for `CCN(CCCCCN(C(C)=O)C(=O)/C=C/c1ccc([N+](=O)[O-])c(O)c1)Cc1ccccc1` [Compound 16-9] is 350 nM. The same measure, in the same setting: the figure for `CCN(CCCCCN(C(C)=O)C(=O)/C=C/c1ccc([N+](=O)[O-])c(OC(C)=O)c1)Cc1ccccc1` [Compound 16-10] is 280 nM; for `CCN(CCCCCN(C(C)=O)C(=O)/C=C/c1ccc(Cl)c([N+](=O)[O-])c1)Cc1ccccc1` [Compound 16-11] it is 410 nM; for `CCOC(=O)c1ccc2c(c1)C(=O)N(CCCCCN(CC)Cc1ccccc1)C2=O` [Compound 17, Ethyl 2-[5-(N-benzyl-N-ethyl)aminopentyl]-1,3(2H)-dioxo-1H-isoindole-5-carboxylate.hydrochloride] it is 680 nM.

Turning to `CCN(CCCCCNC(=O)/C=C/c1ccc(Cl)c([N+](=O)[O-])c1)Cc1ccccc1OC` [Compound 18-1], the IC50 in data set [3] (setting [5]) amounted to 220 nM. Still for that read-out and setting: the figure for `CCN(CCCCCNC(=O)/C=C/c1ccc([N+](=O)[O-])cc1)Cc1ccccc1OC` [Compound 18-2] is 290 nM. Still for that read-out and setting: the figure for `CCN(CCCCCNC(=O)/C=C/c1ccc(S(C)(=O)=O)cc1)Cc1ccccc1OC` [Compound 18-3] is 230 nM. On the same count and under the same terms, the figure for `CCN(CCCCCNC(=O)/C=C/c1ccc(C#N)cc1)Cc1ccccc1OC` [Compound 18-4] is 370 nM; for `CCN(CCCCCNC(=O)/C=C/c1ccc(OC)c(OC)c1)Cc1ccccc1OC` [Compound 18-5] it is 430 nM; for `CCC(=O)N(CCCCCN(CC)Cc1ccccc1)C(=O)/C=C/c1ccc([N+](=O)[O-])cc1` [Compound 19-1] it is 4300 nM. On to `CCN(CCCCCNC(=O)/C=C/c1cccc(N)c1)Cc1ccccc1` [Compound 20-1], for which the IC50 in data set [3] (setting [5]) was found to be 19000 nM. On the same count and under the same terms, the figure for `CCN(CCCCCN(C(C)=O)C(=O)/C=C/c1cccc(N)c1)Cc1ccccc1` [Compound 20-2] is 2400 nM. Still for that read-out and setting: the figure for `CCN(CCCCCNC(=O)/C=C/c1ccc(N)cc1)Cc1ccccc1` [Compound 20-3] is 10000 nM. Still for that read-out and setting: the figure for `CCN(CCCCCN(C(C)=O)C(=O)/C=C/c1cccc(NC(C)=O)c1)Cc1ccccc1` [Compound 21-1] is 1800 nM; for `CCN(CCCCCNC(=O)/C=C/c1ccc(NC(C)=O)cc1)Cc1ccccc1` [Compound 21-2] it is 5700 nM. Consider `CNC(=O)Oc1ccc2c(c1)[C@]1(C)CCN(C)[C@@H]1N2C` [Physostigmine, physostigmine, reference compound], for which, in data set [1] (0.3 mg/kg), the “Anti-amnesia (latency, percent change of the mean time of the vehicle-treated control group)” value was determined as 210%. Also, in data set [4], the LD50 came to 2.6 mg/kg.
